# From patent publication US8377990B2, “Conjugates comprising a psychotropic drug or a GABA agonist and an organic acid and their use in treating pain and other CNS disorders” (Ramot at Tel-Aviv University Ltd., priority 2006, dated 2013)
# Entries after “also recorded” stand apart in the source; their conditions may differ.
# Columns and labels:
# Male Balb-c mice = assay: Hot plate test, latency of the nociceptive reaction to heat; assay type: in vivo; settings: for antinociceptive activity (latency to heat): entire period
# Wistar rats = settings: high doses of fluoxetine; Omar et al. Pharmacol. Res. 49 (2004) 119-131; cited from earlier work
# [1] = treated orally for 5 consecutive days, AN-214 0.2 mg/kg or equivalent molar dose of AN-216, FIG. 7
compound,measurement,setting,value
2-Propyl-pentanoic acid (valproic acid) 4-aminobutyryloxymethyl ester hydrochloride [AN-216],antinociceptive activity (latency to heat),Male Balb-c mice; [1],no antinociceptive activity was detected
"Cl.NCCCC(=O)OCOC(=O)CCCN [AN-214, 4-Amino-butyric acid 4-amino-butyryloxymethyl ester dihydrochloride]",antinociceptive activity (latency to heat),Male Balb-c mice; [1],no antinociceptive activity was detected
"NCCCC(=O)O [GABA, γ-aminobutyric acid]",latency in response to heat sensation,"Male Balb-c mice; GABA 2.39 mg/kg, >10-folds higher dose than the conjugate, FIG. 6",had no activity
same,antinociceptive activity (latency to heat),"Male Balb-c mice; GABA orally for 5 consecutive days, three different doses, FIG. 8",No antinociceptive activity was detected
CNCCC(Oc1ccc(C(F)(F)F)cc1)c1ccccc1 (centres unmarked) [fluoxetine],antinociceptive effect (latency to heat) during repeated treatment,"Male Balb-c mice; repeated oral treatment daily for 11 days, fluoxetine 10 mg/kg or equimolar conjugate, FIGS. 5B-E",significantly better antinociceptive effect compared to untreated animals
same,response to heat sensation prior to daily treatment,"Male Balb-c mice; repeated oral treatment daily for 11 days, fluoxetine 10 mg/kg or equimolar conjugate, tested at days 3, 7, 9 and 11, vs vehicle, FIG. 5A",A delay was noted only on day 11
same,oedema response in rats,Wistar rats,previously shown to reduce oedema response in rats
CNCCC=C1c2ccccc2CCc2ccccc21 [nortriptyline],latency of response to heat,"Male Balb-c mice; p.o. 0.25 mg/kg nortriptyline or equimolar conjugate (0.32 mg/kg), 4 hours following treatment, vs untreated mice, FIG. 2A",increased significantly the latency of response compared to untreated mice
same,"latency of response to heat, onset","Male Balb-c mice; p.o. 0.5 mg/kg nortriptyline, time course, vs vehicle, FIG. 2B","significant latency, (compared to vehicle treated animals), after 4 hours only"
same,latency of response to heat,"Male Balb-c mice; single p.o. dose, 0.5 mg/kg nortriptyline or equimolar dose of conjugate, two hours after administration, FIG. 1, 0.5 mg/kg",significantly less effective; also recorded: did not differ significantly (p>0.05) from control mice
same,latency of response to heat,"Male Balb-c mice; single p.o. dose, 4.5 mg/kg nortriptyline or equimolar dose of conjugate, two hours after administration, vs vehicle, p<0.05, FIG. 1",significant delay in the response compared to control mice
